The values that follow are results of earlier work, collected in article PMC7553790 (The Journal of Experimental Medicine, 2020).

For orientation: pIC50 means the IC50 on a negative log10 scale, so that one unit is a factor of ten.

Structures are written as SMILES. pIC50: −log10 of the molar value. Where two headings read alike, the source gives them in different places.

In this series the test system is Aβ42. Conditions: cell-based studies.

Turning to `O=C(O)[C@H](CC1CCC1)c1cc(Cl)c(OCC(F)(F)F)c(-c2ccc(C(F)(F)F)cc2)c1` [EVP-0015962], the pIC50 (read-out: IC50 of Aβ42, ref Rogers et al., 2012) is less than 7.70.

`O=C(O)C1(c2ccc(-c3ccc(Cl)c(Cl)c3)c(F)c2)CC1` [CHF5074, 1-(3′,4′-Dichloro-2-fluoro[1,1′-biphenyl]-4-yl)-cyclopropanecarboxylic acid]: the negative-log IC50 (pIC50) (read-out: IC50 of decreasing Aβ42, ref Imbimbo et al., 2007) is 5.44.
